Experimental data reported in patent US20250304623A1, “PEPTIDES FOR INTRACELLULAR DELIVERY” (UNIVERSIDADE DE SANTIAGO DE COMPOSTELA, priority 2022, published 2025).

Key:
Format in all cases: cell-based
A549 cells [1] = experiment: EGFP pDNA transfection, flow cytometry, A549; conditions: myristoleyl aldehyde, 5 μM
Procedure: FIG. 6 EGFP pDNA transfection efficacy with amphiphiles (myristoleyl aldehyde hydrophobic tails were used in all cases) comprising peptide 7.3(L-H) and other short peptides structurally-derived from 7.3(L-H), in A549, HeLa and HepG2 cell lines. 5 μM of amphiphile and 2 ng/μL pDNA per well were used in the transfection experiments. “LF”=Lipofectamine® 2000 commercial reagent.
For cytometry-based assays, the delivery of pDNA encoding for the expression of eGFP gene (GFP) in HeLa and A549 cells was performed. Amphiphilic molecule stock solutions in DMSO were diluted with DMEM and freshly mixed with pDNA stock solutions in DMEM prior to transfection experiments, to afford several complexes at different amphiphile concentration (2.5-10 μM) while maintaining a constant final pDNA concentration of 2 ng/μL. The mixture was shaken for 30 min at room temperature before the addition to the cells. The cell medium was aspirated, and cells were washed twice with PBS. Finally, 50 μL of the complex's solution were added to the cells and incubated for 4 h. After the incubation, the medium was replaced by 100 μL of fresh DMEM supplemented with 10% FBS. […] Finally, the GFP fluorescent measurement was performed in a flow cytometer and the percentage of GFP positive (i.e., transfected cells) were quantified. […]

Hela cells [2] = experiment: EGFP pDNA transfection, flow cytometry, HeLa; conditions: myristoleyl aldehyde
Procedure: For cytometry-based assays, the delivery of pDNA encoding for the expression of eGFP gene (GFP) in HeLa and A549 cells was performed. Amphiphilic molecule stock solutions in DMSO were diluted with DMEM and freshly mixed with pDNA stock solutions in DMEM prior to transfection experiments, to afford several complexes at different amphiphile concentration (2.5-10 μM) while maintaining a constant final pDNA concentration of 2 ng/μL. The mixture was shaken for 30 min at room temperature before the addition to the cells. The cell medium was aspirated, and cells were washed twice with PBS. Finally, 50 μL of the complex's solution were added to the cells and incubated for 4 h. After the incubation, the medium was replaced by 100 μL of fresh DMEM supplemented with 10% FBS. 72 hours after transfection the DMEM was removed, and cells were cultured for 5 min with 100 μL of trypsin. Then, 100 μL of PBS (supplemented with 2% FBS and 1% EDTA 0.5M) were added. Finally, the GFP fluorescent measurement was performed in a flow cytometer and the percentage of GFP positive (i.e., transfected cells) were quantified. Amphiphile transfection efficiency was compared to control, non-treated cells and all experiments were done in triplicate.
7.3(Leu-His) peptide with D-amino acids was synthesized. This peptide would be more resistant to the degradation by proteases. The inventors studied the delivery of EGFP pDNA using amphiphiles comprising either enantiomer (either 7.3(Leu-His) peptide with D-amino acids or with L-amino acids) and myristoleyl aldehyde to compare their transfecting activity in HeLa cells. Number of EGFP expressing cells was measured by flow cytometry.
Experiments in cultured cells at different confluence levels were performed to check the effect of this parameter on the activity of amphiphile 7.3(Leu-His) M. As described above, transfection experiments are usually performed on cells seeded the day before at a cell concentration of 60,000 cell/mL (100 μL/well). In the current example, transfection experiments with EGFP pDNA are performed in HeLa cells two and four times more concentrated (120,000 and 240,000 cells/mL, respectively). […] However, for this experiment more volume of complex amphiphile/pDNA was needed as the cell concentration was increased (50, 100 and 200 μL of complexes were used for 60,000, 120,000 and 240,000 cells/mL, respectively).
Several structural modifications were performed on the peptide 7.3(Leu-His). The delivery of EGFP pDNA in HeLa cells using amphiphiles comprising these peptides and myristoleyl aldehyde was tested. The modifications consisted of the modification in the order of the amino acids, the replacement of 1 to 3 K* residues for O* residues and the addition of 1 or 2 R residues on the N-terminus. […]

HepG2 cells [3] = experiment: RLuc pDNA delivery, robotic library screening, HepG2; conditions: Oleyl
Procedure: (§1) Cells were seeded in a 96 well plate the day before the experiment at a concentration of 60,000 cell/mL (100 μL/w) in DMEM+10% FBS+1% Gln-Abt. For robotic library screening, the delivery of pDNA encoding for the expression of Renilla luciferase gene (RLuc, pRL-CMV (Promega, #E2261)) in six different cell lines was performed. Amphihilic molecule stock solutions in DMSO were diluted with DMEM and freshly mixed with pDNA stock solutions in DMEM prior to transfection experiments, to afford several complexes at different amphiphile concentration (2-10 μM) while maintaining a constant final pDNA concentration of 2 ng/μL. The mixture was shaken for 30 min at room temperature before the addition to the cells. The cell medium was aspirated, and cells were washed twice with PBS. Finally, 50 μL of the complex's solution were added to the cells and incubated for 4 h. After the incubation, the medium was replaced by 100 μL of fresh DMEM supplemented with 10% FBS. 72 hours after transfection the DMEM was removed, cells were washed once with HBSS and 90 μL of HBSS were added to each well. Cells were incubated at 37° C. for 30 minutes. Then basal luminescence levels were read in a plate reader. Immediately, 10 μL of coelenterazine h in HBSS were added to each well (5 μM final concentration) and cells were incubated at 37° C. for 10 minutes. Finally, the total luminescence measurement of the plates was performed. Amphiphile transfection efficiency was compared and normalized to Lipofectamine® 2000 efficiency (value of 1 in Tables 1-5 and 7; bold numbers). All experiments were done in triplicate.
(§2) Tables 1-7: RLuc (pDNA) or EGFP (mRNA) expression levels were normalized to Lipofectamine reagents (value=1) and expressed as fold-times signal increase. In the case of siRNA, the siRNA treated cells fluorescence was compared with siMOCK control fluorescence, while Cas9-RNP mediated knockout was measured against the fluorescence of untreated cells. In both siRNA and Cas9-RNP, values are expressed as % fluorescence reduction. Amphiphile concentration was 5 μM in all cases. All experiments were performed in triplicate.
(§3) Tables 8-13 show the mean (triplicates) luminescent intensity (RLU) measured after the transfection of RLuc pDNA by different amphiphiles at different concentrations in a variety of cell lines. Background luminescence values, accounted by untransfected control cells, were subtracted for processing.

Hek293 cells = experiment: RLuc pDNA delivery, robotic library screening, Hek293
Hela cells [4] = experiment: RLuc pDNA delivery, robotic library screening, HeLa; conditions: Hela
Procedure: as §1, with “Amphihilic molecule stock solutions in DMSO were diluted with DMEM and freshly mixed with pDNA stock solutions in DMEM prior to transfection experiments, to afford several complexes at different amphiphile concentration (2-10 μM) while maintaining a constant final pDNA concentration of 2 ng/μL.” left out
as §2, §3

HepG2 cells [5] = experiment: EGFP mRNA delivery, robotic library screening, HepG2; conditions: HepG2 cells
Procedure: Cells were seeded in a 96 well plate the day before the experiment at a concentration of 50,000 cell/mL (100 μL/w) in DMEM+10% FBS+1% Gln-Abt. For robotic library screening, the delivery of EGFP-mRNA (from TriLink, fully substituted with 5-methoxyuridine, capped and polyadenylated; TriLink, CleanCap® EGFP mRNA (5moU), ref. L-7201) in six different cell lines was performed. Amphiphilic molecule stock solutions were prepared in DMSO as described above and diluted in DMEM to afford a range of concentrations. The solutions of EGFP-mRNA/amphiphilic molecule complexes were freshly prepared prior to the transfection experiments. 35 μL of the corresponding amphiphile were added to 10 μL of a solution of EGFP-mRNA at 10 ng/μL in DMEM. The mixture was shaken for 30 min at room temperature before the addition to the cells. The cell medium was aspirated, and cells were washed with PBS twice. […] After the incubation, the medium was replaced by 100 μL of fresh DMEM supplemented with 10% FBS. The total EGFP fluorescence was quantified after 72 h in a well plate reader. Amphiphile transfection efficiency was compared and normalized to Lipofectamine® MessengerMax efficiency (value of 1 in Tables 1-5 and 7; double underlined numbers). All experiments were done in triplicate.
as §2
Tables 14-19 show the mean (triplicates) fluorescence intensity measured after the transfection of EGFP mRNA by different amphiphiles at different concentrations in a variety of cell lines. Background fluorescence values, accounted by untreated control cells, were subtracted for processing.

A549 cells [6] = experiment: RLuc pDNA delivery, robotic library screening, A549
Procedure: as §1, §2, §3

HCT116 cells = experiment: RLuc pDNA delivery, robotic library screening, HCT116
ARPE19 cells = experiment: RLuc pDNA delivery, robotic library screening, ARPE19
[7] = 5 μM, cell lines of FIG. 6 other than A549

Ac-RHK*K*K*HR-NH2 (Ac-RHKKKHR-NH2; not fully specified (residues 3, 4, 5); printed as Ac-RHK*K*K*HR-NH2; also: linker on K* not given here) [V1-7.3(Leu-His)]
EGFP pDNA transfection efficiency compared with other amphiphiles (A549 cells [1]): about half
EGFP pDNA transfection efficiency compared with amphiphile 7.3(Leu-His) M (Hela cells [2]; [7]): generally show the same transfection efficiency

Ac-RK*HHK*K*R-NH2 (Ac-RKHHKKR-NH2; not fully specified (residues 2, 5, 6); printed as Ac-RK*HHK*K*R-NH2; also: linker on K* not given here) [V2-7.3(Leu-His)]
EGFP pDNA transfection efficiency compared with other amphiphiles (A549 cells [1]): enhanced efficiency matching V1-7.3(Leu-His) M transfection efficiency
EGFP pDNA transfection efficiency as % of V1-7.3(Leu-His) M or 7.3(Leu-His) M (Hela cells [2]; [7]): about 50%

Ac-RK*HRK*K*H-NH2 [7.3(Leu-His) peptide with D-amino acids]
EGFP pDNA transfecting activity, D- versus L-amino acid peptide (Hela cells [2]; HeLa, flow cytometry): both peptides perform equally efficiently

Ac-RRK*K*RK*LRRLLRL-NH2 [13(3b)]
mean luminescent intensity (RLuc pDNA) (HepG2 cells [3]; 5 μM): 128030 RLU
mean luminescent intensity (RLuc pDNA) (HepG2 cells [3]; 10 μM): 4005 RLU
mean luminescent intensity (RLuc pDNA) (HepG2 cells [3]; 15 μM): −1204 RLU
mean luminescent intensity (RLuc pDNA) (Hek293 cells; Dodecanal, 5 μM): 233706 RLU
mean luminescent intensity (RLuc pDNA) (Hek293 cells; Palmitoleyl, 5 μM): 97665 RLU
mean luminescent intensity (RLuc pDNA) (Hek293 cells; Palmitoleyl, 10 μM): 33115 RLU
mean luminescent intensity (RLuc pDNA) (Hek293 cells; Petroselinyl, 5 μM): 100988 RLU
mean luminescent intensity (RLuc pDNA) (Hek293 cells; Petroselinyl, 10 μM): 48097 RLU
mean luminescent intensity (RLuc pDNA) (Hela cells [4]; Myristoleyl, 5 μM): 893 RLU
mean luminescent intensity (RLuc pDNA) (Hela cells [4]; Myristoleyl, 10 μM): 446 RLU
mean luminescent intensity (RLuc pDNA) (Hela cells [4]; Myristoleyl, 15 μM): 338 RLU
mean luminescent intensity (RLuc pDNA) (Hela cells [4]; Petroselinyl, 5 μM): 590 RLU
mean fluorescence intensity after transfection of EGFP mRNA (HepG2 cells [5]; Palmitoleyl, 5 μM): 1176
mean fluorescence intensity after transfection of EGFP mRNA (HepG2 cells [5]; Palmitoleyl, 10 μM): −335
mean fluorescence intensity after transfection of EGFP mRNA (HepG2 cells [5]; Palmitoleyl, 15 μM): −37
mean fluorescence intensity after transfection of EGFP mRNA (HepG2 cells [5]; Petroselinyl, 10 μM): 189
mean luminescent intensity (RLuc pDNA) (A549 cells [6]; Dodecanal, 15 μM): 2061 RLU
mean luminescent intensity (RLuc pDNA) (A549 cells [6]; Oleyl, 5 μM): 9759 RLU
mean luminescent intensity (RLuc pDNA) (A549 cells [6]; Oleyl, 10 μM): 1493 RLU
mean luminescent intensity (RLuc pDNA) (A549 cells [6]; Oleyl, 15 μM): 1440 RLU
mean luminescent intensity (RLuc pDNA) (HCT116 cells; Dodecanal, 5 μM): 101412 RLU
mean luminescent intensity (RLuc pDNA) (HCT116 cells; Dodecanal, 10 μM): 17841 RLU
mean luminescent intensity (RLuc pDNA) (HCT116 cells; Dodecanal, 15 μM): 3435 RLU
mean luminescent intensity (RLuc pDNA) (HCT116 cells; Myristoleyl, 5 μM): 34451 RLU
mean luminescent intensity (RLuc pDNA) (HCT116 cells; Myristoleyl, 15 μM): 504 RLU
mean luminescent intensity (RLuc pDNA) (HCT116 cells; Oleyl, 5 μM): 18257 RLU
mean luminescent intensity (RLuc pDNA) (HCT116 cells; Palmitoleyl, 5 μM): 65487 RLU
mean luminescent intensity (RLuc pDNA) (HCT116 cells; Petroselinyl, 5 μM): 11255 RLU
mean luminescent intensity (RLuc pDNA) (ARPE19 cells; Dodecanal, 5 μM): 4597 RLU
mean luminescent intensity (RLuc pDNA) (ARPE19 cells; Myristoleyl, 5 μM): 2571 RLU
mean luminescent intensity (RLuc pDNA) (ARPE19 cells; Myristoleyl, 10 μM): 86 RLU
mean luminescent intensity (RLuc pDNA) (ARPE19 cells; Myristoleyl, 15 μM): 64 RLU
mean luminescent intensity (RLuc pDNA) (ARPE19 cells; Petroselinyl, 5 μM): 5548 RLU
